Earlier results as cited in patent publication US7790164B2, “Fragments of antibodies to epidermal growth factor receptor and methods of their use” (Van Andel Research Institute, priority 2007, dated 2010).

Test system: A431 cells
Settings: Ojima et al. J Med Chem 2002, read-out: IC50 of A431 to paclitaxel; cited from earlier work

For `CC(=O)O[C@H]1C(=O)[C@@]2(C)[C@H]([C@H](OC(=O)c3ccccc3)[C@]3(O)C[C@H](OC(=O)[C@H](O)[C@@H](NC(=O)c4ccccc4)c4ccccc4)C(C)=C1C3(C)C)[C@]1(OC(C)=O)CO[C@@H]1C[C@@H]2O` [paclitaxel], the IC50 is listed as roughly 0.09 nM.
